49 compounds from the Biogen ADME set (Fang et al. 2023) can be followed below.

The conditions of this data set: for aqueous solubility: pH 6.8.

Converted amounts (≈) assume the structure as drawn.

Broadly, the aqueous solubility is the dissolved amount per volume that the medium holds. In turn, `Cc1cccc2cc(C(=O)NCCSc3nccn3C)n(C)c12` came in with an intrinsic clearance, human liver microsomes of 180 mL/min/kg; an intrinsic clearance, rat liver microsomes of 727 mL/min/kg; an aqueous solubility of 33.5 µg/mL (≈ 102 µM).

Turning to `O=C(Cc1ccccc1F)N1CCN(c2nccn3nc4c(c23)CCCC4)CC1`, the MDR1-MDCK efflux ratio worked out at 0.961; the intrinsic clearance, human liver microsomes was 132 mL/min/kg; the intrinsic clearance, rat liver microsomes turned out to be 784 mL/min/kg; the aqueous solubility stood at 56.1 µg/mL (≈ 143 µM).

Take `Cc1cccnc1CN1CCC(O)(c2ccccc2)CC1`: the MDR1-MDCK efflux ratio was 0.958; the intrinsic clearance, human liver microsomes came to 4.93 mL/min/kg; the intrinsic clearance, rat liver microsomes was 684 mL/min/kg.

For the compound `Cc1ccnc(-n2nccc2NC(=O)NC2(C)CCC2)c1`, the MDR1-MDCK efflux ratio was 0.579; the intrinsic clearance, human liver microsomes was found to be 72.8 mL/min/kg; the intrinsic clearance, rat liver microsomes is 931 mL/min/kg.

As to `Cc1nc(CCN2C(=O)NC(C)(C)C2=O)cs1`, the MDR1-MDCK efflux ratio came out at 4.61; the intrinsic clearance, human liver microsomes is at most 4.74 mL/min/kg; the intrinsic clearance, rat liver microsomes turned out to be 21.7 mL/min/kg; the aqueous solubility amounted to 31.9 µg/mL (≈ 126 µM).

With `Cc1ccc(C)c(C(=O)Nc2cnc3c(c2)c(C)nn3C)c1`, the MDR1-MDCK efflux ratio is 0.67; the intrinsic clearance, human liver microsomes is 6.52 mL/min/kg; the intrinsic clearance, rat liver microsomes amounted to 129 mL/min/kg; the aqueous solubility was found to be 2.33 µg/mL (≈ 7.92 µM).

Take `O=c1[nH]c2ccccc2n1C1CCN(c2ncnc3sccc23)CC1`: the intrinsic clearance, human liver microsomes worked out at 35 mL/min/kg; the intrinsic clearance, rat liver microsomes was found to be 339 mL/min/kg; the aqueous solubility worked out at 4.25 µg/mL (≈ 12.1 µM).

As to `CC(C)n1ccc(C(=O)N2CCS(=O)(=O)C(C)(C)C2)n1`, the MDR1-MDCK efflux ratio was 2.42; the intrinsic clearance, human liver microsomes was at most 4.74 mL/min/kg; the intrinsic clearance, rat liver microsomes amounted to 33.7 mL/min/kg; the aqueous solubility is 46.4 µg/mL (≈ 155 µM).

Turning to `CCCCOc1ccc(C(=O)NCc2cc(C)on2)cc1`, the MDR1-MDCK efflux ratio was determined as 0.563; the intrinsic clearance, human liver microsomes was found to be 11.8 mL/min/kg; the intrinsic clearance, rat liver microsomes is 421 mL/min/kg; the aqueous solubility came to 4.2 µg/mL (≈ 14.6 µM).

For the compound `CC(=O)N[C@H]1CCN(C(=O)N[C@H](C)C(c2ccccc2)c2ccccc2)C1`, the MDR1-MDCK efflux ratio came out at 113; the intrinsic clearance, human liver microsomes came to 63.6 mL/min/kg; the intrinsic clearance, rat liver microsomes was 825 mL/min/kg.

On to `CNC(=O)c1ccc(/C=C/c2nc3cc(Cl)ccc3o2)cc1`, for which the MDR1-MDCK efflux ratio is 0.598 and the aqueous solubility was 0.76 µg/mL (≈ 2.43 µM).

For `CC(C)c1nc(S(=O)(=O)N2CC3(CC3)c3ccccc32)c[nH]1`, the MDR1-MDCK efflux ratio came to 8.26; the intrinsic clearance, human liver microsomes was 789 mL/min/kg; the intrinsic clearance, rat liver microsomes was found to be 3110 mL/min/kg.

For the compound `c1ccc(OCc2cc(CC3(NCc4cnc5ccccc5c4)COC3)no2)cc1`, the MDR1-MDCK efflux ratio came to 1.29; the intrinsic clearance, human liver microsomes is 153 mL/min/kg; the intrinsic clearance, rat liver microsomes was 1270 mL/min/kg; the aqueous solubility was 13.1 µg/mL (≈ 32.6 µM).

Consider `Cc1nc(-c2ccccc2)c(C(=O)Nc2ccc(Cl)c(C(F)(F)F)c2)s1`, for which the MDR1-MDCK efflux ratio stood at 0.723 and the aqueous solubility was found to be 0.42 µg/mL (≈ 1.06 µM).

Consider `Cc1ncc(-c2ccc(C)c(S(=O)(=O)NCc3cnn(C)c3C)c2)o1`, for which the MDR1-MDCK efflux ratio came to 36.5; the intrinsic clearance, human liver microsomes was determined as 177 mL/min/kg; the intrinsic clearance, rat liver microsomes was 1370 mL/min/kg.

As to `C=C1C[C@@H]2[C@H](CC[C@]3(C)C(=O)CC[C@@H]23)[C@@]2(C)C=CC(=O)C=C12`, the MDR1-MDCK efflux ratio came out at 0.494; the intrinsic clearance, human liver microsomes was at most 4.74 mL/min/kg; the intrinsic clearance, rat liver microsomes is at most 10.7 mL/min/kg.

Consider `C[C@@H](NC(=O)N1CCC2(CCOCC2)CC1)c1ccc(F)cc1`, for which the MDR1-MDCK efflux ratio is 2.32; the intrinsic clearance, human liver microsomes came to 6.19 mL/min/kg; the intrinsic clearance, rat liver microsomes was 237 mL/min/kg.

Turning to `CN(C)CCN(Cc1ccccc1)C(=O)CCC(=O)Nc1ncc(-c2ccccc2)n1C`, the MDR1-MDCK efflux ratio came out at 38.2; the intrinsic clearance, human liver microsomes amounted to 92 mL/min/kg; the intrinsic clearance, rat liver microsomes was 279 mL/min/kg; the aqueous solubility amounted to 59.1 µg/mL (≈ 136 µM).

With `CN(C)[C@@H]1CN(C(=O)c2cc3ccc(F)cc3[nH]2)C[C@H]1O`, the MDR1-MDCK efflux ratio turned out to be 4.4; the intrinsic clearance, human liver microsomes was at most 4.74 mL/min/kg; the intrinsic clearance, rat liver microsomes is 121 mL/min/kg; the aqueous solubility amounted to 55.1 µg/mL (≈ 189 µM).

Consider `Cc1ccc(Cn2nccc2NC(=O)c2ccncc2)o1`, for which the MDR1-MDCK efflux ratio is 2.28; the intrinsic clearance, human liver microsomes was 7.52 mL/min/kg; the intrinsic clearance, rat liver microsomes was found to be 214 mL/min/kg; the aqueous solubility was 33.6 µg/mL (≈ 119 µM).

Consider `Cn1ccc(CSc2n[nH]c(-c3cc(F)cc(F)c3)n2)n1`, for which the MDR1-MDCK efflux ratio stood at 0.58; the intrinsic clearance, human liver microsomes is 12.9 mL/min/kg; the intrinsic clearance, rat liver microsomes is 131 mL/min/kg.

`CC1CC(N)CCN1C(=O)c1cc(N2CCNC2=O)c(F)cc1F` (stereo not given): the MDR1-MDCK efflux ratio came out at 1.32; the fraction unbound, human plasma was 0.682; the intrinsic clearance, human liver microsomes was at most 4.74 mL/min/kg.

With `O=C(Nc1nnc2n1CCCC2)c1cscn1`, the MDR1-MDCK efflux ratio was 4.14; the intrinsic clearance, human liver microsomes was at most 4.74 mL/min/kg; the intrinsic clearance, rat liver microsomes was at most 10.7 mL/min/kg.

For `Cc1cc(C(F)(F)F)nc(N(C)Cc2c(C)noc2C)n1`, the intrinsic clearance, human liver microsomes turned out to be 91.7 mL/min/kg and the intrinsic clearance, rat liver microsomes was determined as 589 mL/min/kg.

Turning to `NC(=O)Cn1nnc(-c2ccccc2F)n1`, the aqueous solubility came out at 11.6 µg/mL (≈ 52.2 µM).

For `Cc1ccc(NC(=O)CN(C)C(=O)c2ccccc2F)nc1`, the MDR1-MDCK efflux ratio stood at 1.43; the intrinsic clearance, human liver microsomes is at most 4.74 mL/min/kg; the intrinsic clearance, rat liver microsomes stood at 103 mL/min/kg; the aqueous solubility is 54 µg/mL (≈ 179 µM).

`Cn1c(=O)n(-c2ccc(C(C)(C)C#N)cc2)c2c3cc(-c4cnc5ccccc5c4)ccc3ncc21` showed an intrinsic clearance, human liver microsomes of 67.3 mL/min/kg and an intrinsic clearance, rat liver microsomes of 91.3 mL/min/kg.

Turning to `CCCNC(=O)c1c(C)nn(-c2ccccc2)c1C`, the MDR1-MDCK efflux ratio was found to be 0.668; the intrinsic clearance, human liver microsomes was determined as 13.1 mL/min/kg; the intrinsic clearance, rat liver microsomes turned out to be 2060 mL/min/kg; the aqueous solubility was determined as 30.7 µg/mL (≈ 119 µM).

In turn, `O=C(NCc1ccc(O)cc1)Nc1ccncc1F` showed an intrinsic clearance, human liver microsomes of at most 4.74 mL/min/kg; an intrinsic clearance, rat liver microsomes of at most 10.7 mL/min/kg; an aqueous solubility of 37.8 µg/mL (≈ 145 µM).

Take `COc1ccccc1-c1csc(-n2ncc(C#N)c2N)n1`: the aqueous solubility was 0.13 µg/mL (≈ 0.437 µM).

As to `COc1ccc(NC(=O)c2snnc2C)c(OC)c1`, the MDR1-MDCK efflux ratio worked out at 0.521; the intrinsic clearance, human liver microsomes amounted to 34.2 mL/min/kg; the intrinsic clearance, rat liver microsomes amounted to 182 mL/min/kg; the aqueous solubility was 3.67 µg/mL (≈ 13.1 µM).

In the case of `CCC(C)(C)N1CCN(C(=O)NCCc2cc(C)no2)CC1`, the MDR1-MDCK efflux ratio amounted to 7.18; the intrinsic clearance, human liver microsomes is at most 4.74 mL/min/kg; the intrinsic clearance, rat liver microsomes is 274 mL/min/kg.

Take `Cc1nc(NCc2ccc(F)cc2)n(C)n1`: the MDR1-MDCK efflux ratio was determined as 0.975; the intrinsic clearance, human liver microsomes was at most 4.74 mL/min/kg; the intrinsic clearance, rat liver microsomes was at most 10.7 mL/min/kg.

Consider `CC(C)n1cc(-c2ccc3c(c2)N(C)CC3)c2c(NS(=O)(=O)c3ccn(C)n3)ccnc21`, for which the MDR1-MDCK efflux ratio was found to be 2.48; the intrinsic clearance, human liver microsomes worked out at 69.5 mL/min/kg; the intrinsic clearance, rat liver microsomes stood at 115 mL/min/kg; the aqueous solubility was found to be 19.4 µg/mL (≈ 43.1 µM).

Turning to `N=c1ccn2c(n1)O[C@@H]1[C@@H](O)[C@@H](CO)O[C@H]12`, the intrinsic clearance, human liver microsomes is at most 4.74 mL/min/kg and the intrinsic clearance, rat liver microsomes is at most 10.7 mL/min/kg.

Take `O=C(CC(=O)N1CCCC1)N1CCCC1`: the MDR1-MDCK efflux ratio turned out to be 2.82; the intrinsic clearance, human liver microsomes is at most 4.74 mL/min/kg; the intrinsic clearance, rat liver microsomes was at most 10.7 mL/min/kg; the aqueous solubility came to 30.7 µg/mL (≈ 146 µM).

As for `CC(C)c1noc2nc(C3CC3)cc(C(=O)N3CC[C@H](N)C3)c12`, the MDR1-MDCK efflux ratio was 128; the intrinsic clearance, human liver microsomes is at most 4.74 mL/min/kg; the intrinsic clearance, rat liver microsomes was at most 10.7 mL/min/kg; the aqueous solubility came to 34.1 µg/mL (≈ 108 µM).

`CC(C)(C)OC(=O)N1CCNC(=O)C1` displayed an aqueous solubility of 34.3 µg/mL (≈ 171 µM).

Turning to `Cc1nc(-c2cccnc2)sc1C(=O)Nc1ccccc1-c1cn2c(CN3CCOCC3)csc2n1`, the MDR1-MDCK efflux ratio is 3.28 and the aqueous solubility was determined as 0.65 µg/mL (≈ 1.26 µM).

Compound `CC(C)N1CC[C@H](c2nnc(-c3cncn3C)o2)C1` came in with an intrinsic clearance, human liver microsomes of at most 4.74 mL/min/kg; an intrinsic clearance, rat liver microsomes of 79.2 mL/min/kg; an aqueous solubility of 39.3 µg/mL (≈ 150 µM).

On to `COc1cc2c(cc1OC)[C@@H]1Cc3ccc(OC)c(OC)c3CN1CC2`, for which the MDR1-MDCK efflux ratio stood at 0.542; the intrinsic clearance, human liver microsomes was 5.78 mL/min/kg; the intrinsic clearance, rat liver microsomes came to 85.5 mL/min/kg.

With `COc1ccc(-c2cc(C(C)(C)C)nc(-c3ncccn3)n2)cc1`, the MDR1-MDCK efflux ratio is 1.22; the intrinsic clearance, human liver microsomes was 21.6 mL/min/kg; the intrinsic clearance, rat liver microsomes worked out at 75.5 mL/min/kg.

As to `CCCc1ccc(-c2cccc(C(=O)N3CCN(CC(N)=O)CC3)c2)cc1`, the MDR1-MDCK efflux ratio was 8.27; the intrinsic clearance, human liver microsomes was 12.6 mL/min/kg; the intrinsic clearance, rat liver microsomes is 707 mL/min/kg.

For the compound `COc1ncnc(C)c1-c1cccc(OC(C)C)c1`, the MDR1-MDCK efflux ratio amounted to 0.634; the intrinsic clearance, human liver microsomes stood at 63.5 mL/min/kg; the intrinsic clearance, rat liver microsomes came out at 1060 mL/min/kg.

With `Cc1nnc(N2CCCSCC2)c(C#N)c1C`, the MDR1-MDCK efflux ratio is 0.646; the intrinsic clearance, human liver microsomes came to 35.7 mL/min/kg; the intrinsic clearance, rat liver microsomes amounted to 1530 mL/min/kg; the aqueous solubility is 23.6 µg/mL (≈ 95.1 µM).

Regarding `O=C(Nc1ccccc1)c1c([O-])n(-c2ccccc2)n[n+]1Cc1ccccc1`, the MDR1-MDCK efflux ratio was found to be 0.868 and the aqueous solubility amounted to 0.2 µg/mL (≈ 0.54 µM).

In turn, `CCCCNC(=O)c1ccc2c(c1)nnn2C` came in with an intrinsic clearance, human liver microsomes of at most 4.74 mL/min/kg; an intrinsic clearance, rat liver microsomes of at most 10.7 mL/min/kg; an aqueous solubility of 26 µg/mL (≈ 112 µM).

On to `Oc1ccc(-c2noc(-c3cccnc3)n2)cc1`, for which the intrinsic clearance, human liver microsomes came out at 25.1 mL/min/kg; the intrinsic clearance, rat liver microsomes came to 79.3 mL/min/kg; the aqueous solubility was determined as 5.03 µg/mL (≈ 21 µM).

On to `Cc1cc(Cl)n(-c2ccc(C#N)cc2)n1`, for which the MDR1-MDCK efflux ratio was 0.465; the intrinsic clearance, human liver microsomes stood at 105 mL/min/kg; the intrinsic clearance, rat liver microsomes came to 310 mL/min/kg.
